Experimental data reported in PMC12844124, “Synthesis and Study of Substituted Chalcones Combined with Fluoroazobenzenes—New Photoswitches for Application in Biological Systems” (Molecules, 2026).

Experiments:
[1] = Changes over time of Z to E transition by 19F NMR; format: physicochemical; conditions: light 505 nm, 100 mM in DMSO
Description: We can observe that for electromagnetic radiation in the range of wavelengths 390 nm to 610 nm, transitions from E to Z of about 0–76% are obtained. The best results for all compounds are in visible wavelengths 505 nm or 525 nm (30.59–75.44%). From analyzing Figure 2 we can draw the following conclusions: all synthesized compounds undergo switching under visible light (this is important because UV radiation can damage the DNA of cells, inhibiting replication and, as a result, preventing cell division). For the 2,6-difluoro substituents (17i), (17j), (17k), and (17l) with values of 74.84%, 73.2%, 74.39%, and 75.44%, respectively, the largest share of the Z configuration is at (525 nm) and, for the rest of (17a), (17b), (17c), (17e), (17f), and (17g), it is in range of 30.57–47.13% at 505 nm. […] Multiple cycles of photoreversible switching under alternating green and blue light irradiation, with no significant photobleaching or degradation, confirmed the repeatable and robust photochromic conversion of the synthesized azobenzenes (Figure 2b). Then we measured changes over time (transitions from Z to E, upon irradiation with 505 nm for (17a–17c) and (17e–17g), and 525 nm for (17i–17l) compounds (Figure 3, and see Section S4.3 in Supplementary Materials).

[2] = UV–VIS spectra of E/Z isomers in DMSO; format: physicochemical; conditions: for Δ λmax n→π*: between E and Z isomers
Experimental: For this purpose, the UV–VIS spectra were measured for all synthesized hybrids (17a–17l) at concentrations from 20 to 500 µM in dimethyl sulfoxide (DMSO) in light at λ 505 nm and for (17a–17c), (17e–17g), and (17i–17l) at λ 525 nm, respectively, as detailed in Table 1 (see Section S4.4 in Supplementary Materials).

PC-3 cells [3] = assay: MTS cell proliferation assay, PC-3; format: cell-based, human
Experimental: Human BJ fibroblasts (American Type Cell Culture Collection, Manassas, VA, USA, CRL-2522) and human prostate cancer cell line PC-3 (American Type Cell Culture Collection, Manassas, VA, USA, CRL-1435), derived from bone metastases, were routinely grown in […]) Medium (ThermoFisher, Waltham, MA, USA, 21127-022) and supplemented with heat-inactivated 10% Fetal Bovine Serum (Biowest, France, […]) and 1% antibiotic solution (Biowest, Nuaillé, France, L0022), in a humidified 5% CO2 atmosphere at 37 °C. Cells were used between 3 and 20 passages. The 96-well plates were prepared by seeding 5 × 10^3 or 2.5 × 10^3 cells per well, for 24 and 48 h treatments, respectively, with at least five technical and two biological repeats. […] The cells were treated with either the Z conformer of 17j, with continuous illumination with 525 nm light, or the E conformer. The Z conformer was prepared by illuminating its DMSO solution with 525 nm light overnight. The cell proliferation was analyzed with CellTiter Aqueous One Solution Cell Proliferation MTS (3-(4,5-dimethylthiazol-2-yl)-5-(3-carboxymethoxyphenyl)-2-(4-sulfophenyl)-2H-tetrazolium) Assay (Promega, Madison, WI, USA, G5430) after 24 or 48 h of treatment. The absorbance was measured at 490 and 670 nm with FLUOStar Omega plate reader (BMG LABTECH GmbH, Ortenberg, Germany). The statistical analysis was performed within R 4.5.1 project. […] The log-logistic four parametric model (4PL), with the lower limit boundary set to 0 and group fitting, was used, as available in the drc package, to fit cell proliferation data. […] The assessment metrics for model goodness of fit were performed with functions available in the drc package and with custom ones. When appropriate, the delta method was applied to obtain error of central tendency. To assess the goodness of fit for each of the biological replicates, deviance R^2 (DR^2) was calculated and assessed. […] The DR^2 was calculated according to the following Equation: 1 - (Dres/Dnull), where Dres-residual deviance and Dnull-null deviance (deviance of the model with mean as a predicted value). The null hypothesis was assessed with the two-way ANOVA with Tukey's post hoc test for multiple comparisons or with the two-way t-test when only two groups were compared. The differences in the cell cycle percentages were assessed with the two-way ANOVA with Tukey's post hoc test.

PC-3 cells [4] = assay: Cell cycle analysis by flow cytometry, PC-3; format: cell-based, human; conditions: 24 h
Experimental: The BJ or PC-3 cells were treated as described previously, with the exception that 0.15 × 10^6 cells per well were seeded in 6-well plates. After 24 h of treatment, cells were harvested by trypsinization (Biowest, Nuaillé, France, L0931), washed twice, resuspended in PBS, and added to cold 70% ethanol for overnight fixation at −20 °C. Subsequently, cells were centrifuged and resuspended in PBS containing 5 µg/mL of propidium iodide in PBS (Sigma-Aldrich, St. Louis, MO, USA, 4170), 0.1% Triton X-100, and 10 µg/mL of DNAse-free RNAse (A&A Biotechnology, Gdansk, Poland, 1006-10) in the dark for 4 h at 37 °C. FACS analysis was performed using a FACSCanto II flow cytometer and FACSDiva, version 9.0 software (BD Biosciences, San Jose, CA, USA). Flow rate was set to about 1000 events/cells per second. Signals from at least 10,000 events per sample were captured. The percentages of PC-3 cells in cell cycle phases (G0/G1, S, and G2/M) were determined using ModFit LT 4.1.7 (Verity Software House, Topsham, ME, USA).

Row | Compound | Z isomer, changes over time ([1]; 0 h) [%] | Z isomer, changes over time ([1]; 1 h) [%] | Z isomer, changes over time ([1]; 2 h) [%] | Z isomer, changes over time ([1]; 3 h) [%] | Z isomer, changes over time ([1]; 4 h) [%] | Z isomer, changes over time ([1]; 5 h) [%] | Z isomer, changes over time ([1]; 6 h) [%] | Z isomer, changes over time ([1]; 7 h) [%] | Z isomer, changes over time ([1]; 8 h) [%] | Δ (Z to E change 0 h to 8 h) [1] [%] | εmax (n→π*) ([2]; E isomer) [dm^3·mol^−1·cm^−1] | λmax n→π* (E) ([2]; E isomer) [nm] | εmax (n→π*) ([2]; Z isomer) [dm^3·mol^−1·cm^−1] | λmax n→π* (Z) ([2]; Z isomer) [nm] | Δ λmax n→π* [2] [nm] | normalized asymptote (PC-3 cells [3]; 24 h treatment) [%] | normalized asymptote (PC-3 cells [3]; 48 h treatment) [%] | percentage of cells in the G2/M phase (PC-3 cells [4]; 20 nM) [%] | percentage of cells in the G2/M phase (PC-3 cells [4]; 60 nM) [%]
1 | COc1ccc(/C=C/C(=O)c2cccc(/N=N/c3ccc(F)cc3)c2)cc1OC [Compound 17a] | 32.44 | 31.33 | 30.37 | 29.4 | 28.74 | 27.66 | 26.82 | 26.38 | 26.02 | 6.42 | – | – | – | – | – | – | – | – | –
2 | COc1cc(/C=C/C(=O)c2cccc(/N=N/c3ccc(F)cc3)c2)cc(OC)c1 [Compound 17b] | 32.38 | 32.21 | 30.2 | 29.69 | 28.37 | 26.74 | 25.21 | 24.74 | 24.03 | 8.35 | 688 | 442.1 | 898 | 434.0 | 8.1 | – | – | – | –
3 | COc1cc(/C=C/C(=O)c2cccc(/N=N/c3ccc(F)cc3)c2)cc(OC)c1OC [Compound 17c] | 30.59 | 30.16 | 28.28 | 27.14 | 25.95 | 25.61 | 25.18 | 24.05 | 23.17 | 7.42 | – | – | – | – | – | – | – | – | –
4 | COc1cc2c(c(OC)c1OC)-c1ccc(OC)c(=O)cc1[C@@H](NC(C)=O)CC2 [colchicine, reference compound] | – | – | – | – | – | – | – | – | – | – | – | – | – | – | – | 63.8 ± 6.2 | 51.3 ± 5.7 | 15.7 | 54.2

Continued, in another order:

Row | Z isomer, changes over time ([1]; 0 h) [%] | Z isomer, changes over time ([1]; 1 h) [%] | Z isomer, changes over time ([1]; 2 h) [%] | Z isomer, changes over time ([1]; 3 h) [%] | Z isomer, changes over time ([1]; 4 h) [%] | Z isomer, changes over time ([1]; 5 h) [%] | Z isomer, changes over time ([1]; 6 h) [%] | Z isomer, changes over time ([1]; 7 h) [%] | Z isomer, changes over time ([1]; 8 h) [%] | Δ (Z to E change 0 h to 8 h) [1] [%] | εmax (n→π*) ([2]; E isomer) [dm^3·mol^−1·cm^−1] | λmax n→π* (E) ([2]; E isomer) [nm] | εmax (n→π*) ([2]; Z isomer) [dm^3·mol^−1·cm^−1] | λmax n→π* (Z) ([2]; Z isomer) [nm] | Δ λmax n→π* [2] [nm] | Compound | normalized asymptote (PC-3 cells [3]; 24 h treatment) [%] | normalized asymptote (PC-3 cells [3]; 48 h treatment) [%] | percentage of cells in the G2/M phase (PC-3 cells [4]; 20 nM) [%] | percentage of cells in the G2/M phase (PC-3 cells [4]; 60 nM) [%]
5 | 44.82 | 43.69 | 42.89 | 42.36 | 41.25 | 40.61 | 40.5 | 39.88 | 38.78 | 6.04 | – | – | – | – | – | COc1cc(/C=C/C(=O)c2cccc(/N=N/c3ccc(F)cc3F)c2)cc(OC)c1OC [Compound 17g] | – | – | – | –
6 | 46.84 | 45.35 | 45.18 | 44.16 | 43.55 | 43.39 | 43.01 | 42.31 | 42.17 | 4.67 | – | – | – | – | – | COc1ccc(/C=C/C(=O)c2cccc(/N=N/c3ccc(F)cc3F)c2)cc1OC [Compound 17e] | – | – | – | –
7 | 47.13 | 46.61 | 45.77 | 44.72 | 44.28 | 43.95 | 43.3 | 42.6 | 41.87 | 5.26 | 872 | 441.9 | 1150 | 427.9 | 14.0 | COc1cc(/C=C/C(=O)c2cccc(/N=N/c3ccc(F)cc3F)c2)cc(OC)c1 [Compound 17f] | – | – | – | –
